Each block holds one compound with its values, some of them ahead of it.
Assays:
Adenosine A2 receptor [1] = target: Adenosine A2 receptor (Rattus norvegicus, UniProt P29276+P30543); assay: Potency against PC12 cell A2 adenosine receptor by adenylate cyclase activation; type: cell-based; details: pc-12
Adenosine receptor A1 [2] = target: T1, Adenosine receptor A1 (Rattus norvegicus, UniProt P25099); assay: Potency against rat brain adenosine A1 receptor
T1 sequence (P25099 whole entry): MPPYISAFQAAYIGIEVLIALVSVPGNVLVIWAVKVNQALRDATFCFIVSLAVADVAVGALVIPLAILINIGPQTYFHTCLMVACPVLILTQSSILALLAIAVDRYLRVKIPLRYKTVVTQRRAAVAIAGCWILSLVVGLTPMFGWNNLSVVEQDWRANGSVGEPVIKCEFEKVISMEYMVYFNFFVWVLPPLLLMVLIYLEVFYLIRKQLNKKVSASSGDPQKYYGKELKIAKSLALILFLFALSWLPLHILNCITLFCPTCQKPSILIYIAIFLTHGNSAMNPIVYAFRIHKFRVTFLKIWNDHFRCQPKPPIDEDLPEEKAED

Adenosine A2 receptor [3] = target: Adenosine A2 receptor (Homo sapiens, UniProt P29275+P29274); assay: Potency against human platelet A2 adenosine receptor
[4] = target: T2, Adenosine receptor A1 (Rattus norvegicus) (UniProt P25099); assay: Potency against rat brain adenosine A1 receptor at 10 uM
T2 sequence (whole entry): T1 sequence (P25099 whole entry)

Adenosine receptor A1 [5] = target: T1, Adenosine receptor A1; assay: Potency against rat brain A1 adenosine receptor

SMILES: CCNC(=O)[C@H]1O[C@@H](n2cnc3c(N[C@H](CC)Cc4ccccc4)ncnc32)[C@H](O)[C@@H]1O
IC50 (Adenosine receptor A1 [2]): 0.52 nM

SMILES: CCCCN(C)C(=O)[C@H]1OC(n2cnc3c(NC(CC)CC)ncnc32)[C@H](O)[C@@H]1O (some centres undefined)
EC50 (Adenosine A2 receptor [1]): > 100000 nM

SMILES: O=C([C@H]1OC(n2cnc3c(N4CCCCC4)ncnc32)[C@H](O)[C@@H]1O)N1CCCCC1 (some centres undefined)
inhibition [4]: 0%
EC50 (Adenosine A2 receptor [1]): > 100000 nM

SMILES: NC(=O)[C@H]1OC(n2cnc3c(N)ncnc32)[C@H](O)[C@@H]1O (some centres undefined)
IC50 (Adenosine receptor A1 [2]): 70 nM
EC50 (Adenosine A2 receptor [3]): 5700 nM
EC50 (Adenosine A2 receptor [1]): 1560 nM

SMILES: CCNC(=O)[C@H]1O[C@@H](n2cnc3c(N[C@@H](CC)Cc4ccccc4)ncnc32)[C@H](O)[C@@H]1O
IC50 (Adenosine receptor A1 [2]): 26 nM

SMILES: CCC(CC)Nc1ncnc2c1ncn2C1O[C@H](C(=O)NCc2ccccc2)[C@@H](O)[C@H]1O (some centres undefined)
IC50 (Adenosine receptor A1 [2]): 104 nM
EC50 (Adenosine A2 receptor [1]): > 100000 nM

SMILES: CNC(=O)[C@H]1O[C@@H](n2cnc3c(N)ncnc32)[C@H](O)[C@@H]1O
IC50 (Adenosine receptor A1 [2]): 105 nM
EC50 (Adenosine A2 receptor [3]): 1700 nM

SMILES: CCC(CC)Nc1ncnc2c1ncn2C1O[C@H](C(=O)N(CC)CC)[C@@H](O)[C@H]1O (some centres undefined)
IC50 (Adenosine receptor A1 [2]): 1700 nM
EC50 (Adenosine A2 receptor [1]): > 100000 nM

SMILES: CCC(CC)NC(=O)[C@H]1OC(n2cnc3c(NC(CC)CC)ncnc32)[C@H](O)[C@@H]1O (some centres undefined)
IC50 (Adenosine receptor A1 [2]): 1400 nM
EC50 (Adenosine A2 receptor [1]): > 100000 nM

SMILES: CCC(CC)Nc1ncnc2c1ncn2C1O[C@H](C(=O)N(C)C)[C@@H](O)[C@H]1O (some centres undefined)
IC50 (Adenosine receptor A1 [2]): 13000 nM
EC50 (Adenosine A2 receptor [1]): > 100000 nM

SMILES: CCC(CC)Nc1ncnc2c1ncn2C1O[C@H](C(=O)NC(C)C)[C@@H](O)[C@H]1O (some centres undefined)
IC50 (Adenosine receptor A1 [5]): 11 nM
EC50 (Adenosine A2 receptor [1]): 5100 nM

More lines, now with the values ahead:

EC50 (Adenosine A2 receptor [1]): 1830 nM
SMILES: CCNC(=O)[C@H]1OC(n2cnc3c(NC4CCCCC4)ncnc32)[C@H](O)[C@@H]1O (some centres undefined)

IC50 (Adenosine receptor A1 [2]): 10000 nM
EC50 (Adenosine A2 receptor [3]): > 100000 nM
EC50 (Adenosine A2 receptor [1]): > 100000 nM
SMILES: CCNC(=O)[C@H]1OC(n2cnc3c(N(C)C)ncnc32)[C@H](O)[C@@H]1O (some centres undefined)

EC50 (Adenosine A2 receptor [3]): 260 nM
SMILES: Nc1ncnc2c1ncn2[C@@H]1O[C@H](C(=O)NC2CC2)[C@@H](O)[C@H]1O

IC50 (Adenosine receptor A1 [2]): 17 nM
EC50 (Adenosine A2 receptor [1]): 8900 nM
SMILES: C=CCNC(=O)[C@H]1OC(n2cnc3c(NC(CC)CC)ncnc32)[C@H](O)[C@@H]1O (some centres undefined)

IC50 (Adenosine receptor A1 [2]): 2.4 nM
EC50 (Adenosine A2 receptor [3]): 3100 nM
EC50 (Adenosine A2 receptor [1]): 980 nM
SMILES: CCNC(=O)[C@H]1O[C@@H](n2cnc3c(N[C@H](C)Cc4ccccc4)ncnc32)[C@H](O)[C@@H]1O

IC50 (Adenosine receptor A1 [5]): 2 nM
EC50 (Adenosine A2 receptor [1]): 540 nM
SMILES: CCC(CC)Nc1ncnc2c1ncn2C1O[C@H](C(=O)NC2CC2)[C@@H](O)[C@H]1O (some centres undefined)

IC50 (Adenosine receptor A1 [2]): 20 nM
EC50 (Adenosine A2 receptor [1]): 6400 nM
SMILES: CCC(CC)Nc1ncnc2c1ncn2C1O[C@H](C(=O)NC)[C@@H](O)[C@H]1O (some centres undefined)

Source: ChEMBL document CHEMBL1123491, “N6-substituted N-alkyladenosine-5'-uronamides: bifunctional ligands having recognition groups for A1 and A2 adenosine receptors” (J Med Chem, 1986)
